Tests used:
L6 rat skeletal cells [1] = assay: SOD antioxidant assay, SOD activity of L6 cells under hypoxic conditions; format: cell-based; details: 80 μg/ml, hypoxic condition; vehicle 16.58% ± 0.31%; means ± SD
Procedure: Cells were homogenized in ice-cold phosphate buffer (50 mmol/L, pH 7.4) to make 10% w/v homogenate with a motor-driven Potter-Elvejhem glass homogenizer at 0-4° C. The homogenate will be then centrifuged at 300 g for 10 min at 4° C. to remove intact cells and debris. The remaining supernatant was divided into 2 parts for different enzyme assays. For SOD assays, the supernatant will be centrifuged at 2300 g for a further 10 min at 4° C. After centrifugation, the pellets will be discarded and the supernatants were used for the assessment of enzyme activity. The procedure was carried out on ice or at 0-4° C. Reagents for the assay were obtained through a commercially available SOD Assay Kit.
The samples were mixed and placed in a water bath at 37° C. for 40 min. A chromogenic agent (200 μl) was then added, the samples mixed, then left at room temperature for 10 min before absorbance at 550 nm was detected. The Inhibition ration was then calculated using the formula: Inhibition ratio=(ODn−OD1)/OD1×100%. […] The protein concentration was measured using the BCA protein quantitative assay.
After 10 μl was selected for use for the SOD assays, SOD activity assays were performed for the samples of the various treatment groups (20 μg/ml, 40 μg/ml, or 80 μg/ml of RG, Rhodiola Crenulata, or Ginkgo biloba, respectively, and 80 μg/ml of Vitamin C) where the sample volumes were as shown in Table 10. […]

L6 rat skeletal cells [2] = assay: MTT assay, viability of L6 cells under hypoxic conditions; format: cell-based; details: 80 μg/ml, 12 h pretreatment, 1 h hypoxia; vehicle 27% ± 1.3%; means ± SD
Procedure: L6 cells were cultured in 96-well tissue culture plates (1×10^4 cell/well) with 10% FBS for 24 hours. Serum-free medium was then used for another 24 hours prior to treatment with RGC, Rhodiola crenulata extract, or Ginkgo biloba extract. Cell viability and proliferation were measured by the 3-(4,5-dimethylthiazol-2-yl)-2,5-diphenyltetrazolium bromide (MTT) and 5-bromo-2′-deoxyuridine (BrdU) (Roche Diagnostics, USA) incorporation assays, respectively.
The L6 cells were plated in 96-well plates (5000 cell/well) for 24 hours. Then the serum-free medium was used and cells incubated for another 12 hours. Sequentially, cells were pretreated with various concentrations (20 μg/ml, 40 μg/ml, 80 μg/ml) of RG, Rhodiola Crenulata, or Ginkgo biloba, respectively, or Vitamin C (80 μg/ml) for 12 hours, followed by exposure to an ischemic solution (EBSS) and placed in an anaerobic chamber (Diagnostic System) for 1 hour. The control cells were incubated without treatment for 1 hour. After 1 hour exposure to hypoxic and ischemic environments, 100 μl MTT (0.5 mg/ml in PBS) was added to each well and the cells were incubated at 37° C. for 4 h. The MTT solution was prepared by dissolving 250 mg of MTT in 50 ml PBS (0.01 mol/L, PH7.4) to prepare 0.5% MTT staining solution. The solution was then filtered through Millipore membrane and stored at 4° C. […]

## O=C1O[C@H]([C@@H](O)CO)C(O)=C1O [Vitamin C]
L6 rat skeletal cells [1]
  SOD Enzymatic Activity: 20.00% ± 0.08%
L6 rat skeletal cells [2]
  Cell proliferation in hypoxic conditions (cell survival rate, MTT): 41% ± 3.2%

— patent US8119170B2, “Herbal compositions and methods for enhancing vital energy and athletic performance” (priority 2008, dated 2012)
